The results in this text go back to ChEMBL document CHEMBL5120879, “Medicinal Chemistry Strategies for the Development of Bruton's Tyrosine Kinase Inhibitors against Resistance” (J Med Chem, 2022).

The target in data set [1] is von Hippel-Lindau disease tumor suppressor/Tyrosine-protein kinase BTK (Homo sapiens, UniProt Q06187+P40337). The experiment in a line: PROTAC activity at VHL/BTK (unknown origin) assessed as induction of BTK degradation. In kind it is protein assay.
A short description of data set [2]: Intrinsic clearance in mouse. In kind it is ADME, organism-based. Conditions: in vivo.
Data set [3] concerns the target T1, Tyrosine-protein kinase BTK (Homo sapiens, UniProt Q06187, C481S). The experiment in a line: Inhibition of BTK C481S mutant (unknown origin).
Data set [4] deals with T2, Tyrosine-protein kinase BTK (Homo sapiens, UniProt Q06187). The experiment in a line: Inhibition of wild-type BTK (unknown origin).
A short description of data set [5]: Inhibition of cell proliferation in human HBL1 cells harboring Ibrutinib-resistant BTK C481S mutant assessed as cell growth inhibition. The class given is functional.
For data set [6], the target named is Protein cereblon/Tyrosine-protein kinase BTK (Homo sapiens, UniProt Q06187+Q96SW2). The experiment in a line: PROTAC activity at CRBN/BTK (unknown origin) assessed as BTK degradation. The class given is protein assay.
In data set [7] the target is T2, Tyrosine-protein kinase BTK. The data set can be described thus: Inhibition of BTK (unknown origin).
Data set [8] has the same target. The experiment in a line: Induction of degradation of BTK in human Ramos cells at 10 nM relative to control. The class given is cell-based.
For data set [9] the target is unchanged. The experiment in a line: Induction of degradation of BTK in human Ramos cells at 100 nM relative to control. In kind it is cell-based.
Data set [10] deals with T1, Tyrosine-protein kinase BTK. The data set can be described thus: Induction of degradation of Ibrutinib-resistant BTK C481S mutant (unknown origin).
Data set [11] is described as follows: Inhibition of BTK C481Y mutant (unknown origin). Set-up: species or system Homo sapiens.

T2 sequence (Q06187 whole entry): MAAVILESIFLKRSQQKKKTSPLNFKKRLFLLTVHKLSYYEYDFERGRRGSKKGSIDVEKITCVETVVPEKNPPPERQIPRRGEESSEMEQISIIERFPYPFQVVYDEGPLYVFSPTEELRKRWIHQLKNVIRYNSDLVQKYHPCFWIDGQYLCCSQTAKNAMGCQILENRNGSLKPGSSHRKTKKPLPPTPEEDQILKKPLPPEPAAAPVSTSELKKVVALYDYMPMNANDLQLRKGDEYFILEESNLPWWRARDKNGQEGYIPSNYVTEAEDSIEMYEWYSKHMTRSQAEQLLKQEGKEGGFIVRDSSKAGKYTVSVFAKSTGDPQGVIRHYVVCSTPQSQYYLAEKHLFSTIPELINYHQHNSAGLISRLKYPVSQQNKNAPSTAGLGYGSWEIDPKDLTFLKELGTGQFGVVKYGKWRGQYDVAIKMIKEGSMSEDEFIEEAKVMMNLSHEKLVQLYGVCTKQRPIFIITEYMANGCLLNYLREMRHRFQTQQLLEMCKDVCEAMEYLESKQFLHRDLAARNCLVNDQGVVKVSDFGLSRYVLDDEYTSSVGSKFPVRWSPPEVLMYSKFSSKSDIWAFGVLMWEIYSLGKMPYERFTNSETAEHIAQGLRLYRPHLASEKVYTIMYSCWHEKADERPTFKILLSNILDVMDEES
T1 sequence (Q06187 2-659 C481S limits assumed): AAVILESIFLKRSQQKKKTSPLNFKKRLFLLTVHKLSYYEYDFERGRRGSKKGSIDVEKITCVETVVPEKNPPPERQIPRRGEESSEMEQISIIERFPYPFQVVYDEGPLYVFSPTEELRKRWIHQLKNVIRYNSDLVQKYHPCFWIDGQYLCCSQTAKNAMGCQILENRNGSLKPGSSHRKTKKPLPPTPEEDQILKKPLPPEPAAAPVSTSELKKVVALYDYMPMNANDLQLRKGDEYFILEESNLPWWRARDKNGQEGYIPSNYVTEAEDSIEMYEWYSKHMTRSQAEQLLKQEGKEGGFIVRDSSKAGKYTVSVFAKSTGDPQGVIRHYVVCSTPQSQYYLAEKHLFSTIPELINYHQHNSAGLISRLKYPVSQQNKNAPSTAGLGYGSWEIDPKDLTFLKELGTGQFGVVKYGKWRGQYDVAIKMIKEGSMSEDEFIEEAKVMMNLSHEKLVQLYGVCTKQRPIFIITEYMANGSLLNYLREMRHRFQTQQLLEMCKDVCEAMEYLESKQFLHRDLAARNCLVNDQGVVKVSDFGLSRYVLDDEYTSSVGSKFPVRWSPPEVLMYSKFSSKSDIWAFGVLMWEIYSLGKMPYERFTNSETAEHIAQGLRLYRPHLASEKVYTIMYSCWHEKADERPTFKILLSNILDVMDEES
Protein cereblon/Tyrosine-protein kinase BTK, sequence (Q06187 whole entry): as the sequence (Q06187 whole entry) above
Protein cereblon/Tyrosine-protein kinase BTK, sequence (Q96SW2 whole entry): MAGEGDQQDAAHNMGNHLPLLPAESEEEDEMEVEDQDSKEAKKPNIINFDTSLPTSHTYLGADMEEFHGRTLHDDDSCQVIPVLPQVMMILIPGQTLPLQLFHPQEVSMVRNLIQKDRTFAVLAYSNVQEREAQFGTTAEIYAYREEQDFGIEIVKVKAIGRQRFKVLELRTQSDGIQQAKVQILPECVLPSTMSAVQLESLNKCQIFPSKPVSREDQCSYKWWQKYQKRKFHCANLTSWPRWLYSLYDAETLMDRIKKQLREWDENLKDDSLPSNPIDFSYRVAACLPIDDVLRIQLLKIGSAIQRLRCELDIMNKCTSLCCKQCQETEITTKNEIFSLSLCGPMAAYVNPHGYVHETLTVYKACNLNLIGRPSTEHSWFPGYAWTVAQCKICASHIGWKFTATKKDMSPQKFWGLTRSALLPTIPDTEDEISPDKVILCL
von Hippel-Lindau disease tumor suppressor/Tyrosine-protein kinase BTK, sequence (Q06187 whole entry): as the sequence (Q06187 whole entry) above
von Hippel-Lindau disease tumor suppressor/Tyrosine-protein kinase BTK, sequence (P40337 whole entry): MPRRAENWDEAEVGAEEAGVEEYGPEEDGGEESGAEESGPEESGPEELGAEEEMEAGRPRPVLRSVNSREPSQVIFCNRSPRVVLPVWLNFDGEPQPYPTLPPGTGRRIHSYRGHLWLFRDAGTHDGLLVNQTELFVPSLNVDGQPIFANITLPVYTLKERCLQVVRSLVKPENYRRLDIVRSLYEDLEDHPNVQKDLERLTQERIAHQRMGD

As to `Nc1ncnc2c1c(-c1ccc(Oc3ccccc3)cc1)nn2C1CCN(CCOCCOCCOc2ccc3c(c2)CN(C2CCC(=O)NC2=O)C3=O)CC1` (stereo not drawn), the 50% degradation concentration (DC50) (as a rule, the concentration at which degradation of the target reaches its halfway point) in data set [1] turned out to be 7.9 nM.
On to `Nc1ncnc2c1c(-c1ccc(Oc3ccccc3)cc1)nn2C1CCN(CCOCCOCC(=O)Nc2ccc3c(c2)C(=O)N(C2CCC(=O)NC2=O)C3=O)CC1` (stereo not drawn), for which the intrinsic clearance (CLint scaled) (as a rule, the capacity of the preparation to metabolise the compound, expressed as a volume cleared per time) in [2] was found to be 99.7 L/h/kg.
As to `O=C(c1ccc(Oc2ccccc2)cc1Cl)c1c[nH]c2ncnc(N[C@H]3CCC[C@H](CO)O3)c12`, the IC50 (commonly the point on the concentration scale where inhibition reaches its midpoint) was 0.39 nM in data set [3] and 0.85 nM in [4].
With `Nc1ncnc2c1c(-c1ccc(Oc3ccccc3)cc1)nn2[C@@H]1CCCN(Cc2cn(CCOCCOCCOCCNc3cccc4c3CN(C3CCC(=O)NC3=O)C4=O)nn2)C1` (stereo partly drawn), in data set [5], the concentration for 50% growth inhibition (GI50) (as a rule, the concentration at which growth is held to half of that of the control) is 30 nM. Further, the 50% degradation concentration (DC50) in data set [6] is 29 nM.
Consider `Cc1cc(C(N)=O)c2[nH]c3cc(C(C)(C)O)ccc3c2c1-c1cccc(-n2c(=O)[nH]c3c(F)cccc3c2=O)c1O`, for which the half-inhibitory concentration (IC50) in [7] amounted to 0.3 nM. That is a sub-nanomolar value.
Take `Nc1ncnc2c1c(-c1ccc(Oc3ccccc3)cc1)nn2[C@@H]1CCCN(C(=O)c2cn(CCOCCOCCOCCNc3cccc4c3C(=O)N(C3CCC(=O)NC3=O)C4=O)nn2)C1` (stereo partly drawn): in data set [5], the GI50 amounted to 28 nM. Moreover, the Activity in [8] is 73%; in data set [9], 89%. Moreover, the DC50 in data set [6] was determined as 6.3 nM.
Regarding `COc1cc(Nc2c(C#N)cnc3cc(OCCCN4CCN(CCOCCOCCNc5cccc6c5C(=O)N(C5CCC(=O)NC5=O)C6=O)CC4)c(OC)cc23)c(Cl)cc1Cl` (stereo not drawn), the DC50 in [10] was determined as 30 nM.
Consider `Nc1nccn2c([C@@H]3CC[C@H]4CN(CCO)CC(=O)N4C3)nc(-c3ccc(C(=O)Nc4cc(C(F)(F)F)ccn4)cc3)c12`, for which the IC50 in [11] worked out at 0.1 nM.
